Experiment [1] has as its target T1, human enzyme NAMPT (full length) (Homo sapiens, UniProt P43490).
T1 construct: human enzyme NAMPT (full length)
The experiment in a line: NMN fluorescence biochemical assay (stimulation of NMN synthesis by NAMPT). As to conditions: for EC50: concentration giving half-maximal activation, read-out: Enzymatic EC50; for Enzymatic Emax: fold change of maximal activation compared to DMSO. The method, boiled down: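 Full-length human NAMPT (100 nM) was preincubated 15 min at 37 °C with compound in 50 mM Tris-HCl pH 7.5, 10 mM MgCl2, 2 mM DTT, then reacted 1 h at 37 °C with 50 μM NAM, 100 μM PRPP, 4 mM ATP (stated solution concentrations). NMN was derivatised with acetophenone/KOH then formic acid and read at Ex/Em 382/445 nm; EC50 and Emax (fold over DMSO) reported.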

Experiment [2] concerns endogenous NAMPT in U2OS cells. The experiment in a line: Cellular NAD+ modulation assay (NAD/NADH-Glo, U2OS cells). Format: cell-based. The conditions noted are these: Homo sapiens; for maximal fold induction: read-out: Cellular Emax. The protocol: Certain compounds described herein were also assayed for their ability to stimulate the endogenous NAMPT in a native cellular environment in a cellular NAD^+ modulation assay. U2OS cells were grown in McCoy's 5A medium with 10% fetal bovine serum, in a humidified incubator with an atmosphere of 95% air and 5% CO2 at 37° C. The assays were initiated by plating 30 μL of U2OS cells in a culture medium with 10% fetal bovine serum, at a density of 3000 cells per well in a Corning® 384-well White/Clear Bottom Polystyrene Microplate. The plates were incubated in 37T incubators for a period of 16 hours. Test compounds with a series of concentrations in DMSO were added to the plates in a volume of 150 nL using Echo Liquid handlers. The plates are then incubated for 24 hours. The medium was removed from the wells, then 10 μL PBS was added to each well. To each well of cells in 10 μL of PBS, 10 μL of base solution with 1% DTAB was added. The plate was briefly mixed on a plate shaker to ensure homogeneity and cell lysis (5 mins). 10p L of 0.4N HCl was added per well. The plate was coved, and all samples were incubated for 15 minutes at 60° C. Then the plate was equilibrated for 10 minutes at room temperature. 10 μL of 0.5M Trizma® base was added to each well of acid-treated cells to neutralize the acid. Finally, 30 μL of NAD/NADH-Glo™ Detection Reagent was added. The plate was gently shaken to mix the samples. The plate was incubated for 40 minutes at room temperature. Luminescence was recorded using a luminometer. The potency measurements for the test compounds were quantified and represented as EC50 (concentration of a compound that gives half-maximal activation) and Emax (fold change of a compound's maximal activation compared to DMSO).

[3] abbreviates: NMN fluorescence assay, purified human NAMPT 100 nM.
Where [4] appears, read: 24 hours incubation, cellular NAD+.
The mark [5] stands for this setting: NMN synthesis by purified human NAMPT (100 nM).
[6] abbreviates: 24 hours incubation with compound.

Where two headings read alike, the source gives them in different places. A value given as a limit tells only on which side of the number the result lay.

T1 sequence (P43490 whole entry): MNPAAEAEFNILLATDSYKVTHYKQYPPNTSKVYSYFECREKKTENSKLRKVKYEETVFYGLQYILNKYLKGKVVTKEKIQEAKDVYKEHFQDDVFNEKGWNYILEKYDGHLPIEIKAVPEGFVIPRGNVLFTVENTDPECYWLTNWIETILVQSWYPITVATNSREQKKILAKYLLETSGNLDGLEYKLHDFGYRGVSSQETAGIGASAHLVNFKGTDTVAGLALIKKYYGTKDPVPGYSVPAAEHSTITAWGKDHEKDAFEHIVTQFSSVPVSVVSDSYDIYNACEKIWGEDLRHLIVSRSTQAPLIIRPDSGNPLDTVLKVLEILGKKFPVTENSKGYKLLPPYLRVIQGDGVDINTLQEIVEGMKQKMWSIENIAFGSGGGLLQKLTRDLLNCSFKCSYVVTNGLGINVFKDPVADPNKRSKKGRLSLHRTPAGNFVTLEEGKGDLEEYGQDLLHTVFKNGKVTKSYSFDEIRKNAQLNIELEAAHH

For `Cn1ncc(Cl)c1CC1c2cc(C3CC3)ccc2C(=O)N1Cc1ccc2[nH]nnc2c1` (centres unmarked) [Compound 350, 2-((1H-benzo[d][1,2,3]triazol-5-yl)methyl)-3-((4-chloro-1-methyl-1H-pyrazol-5-yl)methyl)-5-cyclopropylisoindolin-1-one], the EC50 in experiment [1] (setting [3]) was less than 0.5 µM. For the same compound, the “Enzymatic Emax” value in experiment [1] is on record as “A (A>3)”. Further, in experiment [2] (setting [4]), the EC50 is less than 0.5 µM and the maximal fold induction is more than 1.5.
In the case of `Cn1ncc(Cl)c1CC1c2cc(C(C)(C)O)ccc2C(=O)N1Cc1ccc2[nH]nnc2c1` (centres unmarked) [Compound 382, 2-((1H-benzo[d][1,2,3]triazol-5-yl)methyl)-3-((4-chloro-1-methyl-1H-pyrazol-5-yl)methyl)-5-(2-hydroxypropan-2-yl)isoindolin-1-one], the EC50 in experiment [1] (setting [3]) was in the range of 0.5 to 5 µM. Moreover, the “Enzymatic Emax” value in experiment [1] is “B (3≥B>2)”. For the same compound, in experiment [2] (setting [4]), the EC50 lay in the range of 0.5 to 5 µM and the maximal fold induction is more than 1.5.
Consider `Cn1ncc(Cl)c1CC1c2ccccc2C(=O)N1C/C(F)=C\c1c[nH]nn1` (centres unmarked) [Compound 515, (E)-3-((4-chloro-1-methyl-1H-pyrazol-5-yl)methyl)-2-(2-fluoro-3-(1H-1,2,3-triazol-4-yl)allyl)isoindolin-1-one], for which the EC50 in experiment [1] (setting [3]) is not below 5 µM. Further, in experiment [1], the “Enzymatic Emax” value is recorded as “B (3≥B>2)”. Moreover, in experiment [2] (setting [4]), the EC50 lay within 0.5 to 5 µM and the maximal fold induction is more than 1.5.
The corresponding values for `Cn1ncc(Cl)c1CC1c2ccccc2C(=O)N1C/C(F)=C/c1c[nH]nc1Cl` (centres unmarked) [Compound 519, (Z)-3-((4-chloro-1-methyl-1H-pyrazol-5-yl)methyl)-2-(3-(3-chloro-1H-pyrazol-4-yl)-2-fluoroallyl)isoindolin-1-one] are 0.5 to 5 µM, “B (3≥B>2)”, 0.5 to 5 µM and more than 1.5.
`Cc1cncc(C#N)c1CC1c2ccccc2C(=O)N1Cc1ccc2[nH]nnc2c1` (centres unmarked) [Compound 364, 4-((2-((1H-benzo[d][1,2,3]triazol-5-yl)methyl)-3-oxoisoindolin-1-yl)methyl)-5-methylnicotinonitrile]: the EC50 in experiment [1] (setting [3]) was less than 0.5 µM. For the same compound, the “Enzymatic Emax” value in experiment [1] is on record as “B (3≥B>2)”. Further, in experiment [2] (setting [4]), the EC50 is less than 0.5 µM and the maximal fold induction was more than 1.5.
On to `Cc1ccc(=O)n(C)c1CC1c2ccccc2C(=O)N1CC1CC2(CNC(=O)O2)C1` (centres unmarked) [Compound 493, 2-((1-((1,3-dimethyl-6-oxo-1,6-dihydropyridin-2-yl)methyl)-3-oxoisoindolin-2-yl)methyl)-5-oxa-7-azaspiro[3.4]octan-6-one], for which the EC50 in experiment [1] (setting [3]) lay within 0.5 to 5 µM. Besides, the “Enzymatic Emax” value in experiment [1] is reported as “B (3≥B>2)”. Also, in experiment [2] (setting [4]), the 50% effective concentration (EC50) was in the range of 0.5 to 5 µM and the maximal fold induction was more than 1.5.
For `O=C1c2ccccc2C(Cc2ncccc2Br)N1Cc1cc(F)c2[nH]nnc2c1` (centres unmarked) [Compound 329, 3-((3-bromopyridin-2-yl)methyl)-2-((7-fluoro-1H-benzo[d][1,2,3]triazol-5-yl)methyl) isoindolin-1-one], in experiment [1] (setting [3]), the EC50 was less than 0.5 µM. Also, in experiment [1], the “Enzymatic Emax” value is reported as “B (3≥B>2)”. Further, in experiment [2] (setting [4]), the EC50 is 5 to 50 µM and the maximal fold induction was more than 1.5.
On to `O=C1c2ccccc2C(Cc2ncco2)N1Cc1ccc2[nH]c(=O)oc2c1` (centres unmarked) [Compound 150, 6-((1-(oxazol-2-ylmethyl)-3-oxoisoindolin-2-yl)methyl)benzo[d]oxazol-2(3H)-one], for which the EC50 in experiment [1] (setting [5]) was not below 5 µM. Besides, in experiment [1], the “Enzymatic Emax” value is given as “A (A>3)”. Also, in experiment [2] (setting [6]), the EC50 is 5 to 50 µM and the maximal fold induction was more than 1.5.
As to `Cn1ncc(Cl)c1CC1c2ccc(Cl)cc2C(=O)N1Cc1ccc2[nH]nnc2c1` (centres unmarked) [Compound 343, 2-((1H-benzo[d][1,2,3]triazol-5-yl)methyl)-6-chloro-3-((4-chloro-1-methyl-1H-pyrazol-5-yl)methyl)isoindolin-1-one], the EC50 in experiment [1] (setting [3]) was less than 0.5 µM. Further, in experiment [1], the “Enzymatic Emax” value is given as “A (A>3)”. Also, in experiment [2] (setting [4]), the EC50 is less than 0.5 µM and the maximal fold induction is more than 1.5.
Turning to `Cc1ccccc1CC1c2cccnc2C(=O)N1Cc1ccc2[nH]c(=O)oc2c1` (centres unmarked) [Compound 160, 6-((5-(2-methylbenzyl)-7-oxo-5,7-dihydro-6H-pyrrolo[3,4-b]pyridin-6-yl)methyl)benzo[d]oxazol-2(3H)-one], in experiment [1] (setting [5]), the EC50 lay within 0.5 to 5 µM. In experiment [1], the “Enzymatic Emax” value was “B (3≥B>2)”. Moreover, in experiment [2] (setting [6]), the EC50 was in the range of 0.5 to 5 µM and the maximal fold induction was more than 1.5.
For the compound `Cc1cccc2c1C(Cc1c(Cl)cnn1C)N(CC1CC3(CNC(=O)O3)C1)C2=O` (centres unmarked) [Compound 470, 2-((3-((4-chloro-1-methyl-1H-pyrazol-5-yl)methyl)-4-methyl-1-oxoisoindolin-2-yl)methyl)-5-oxa-7-azaspiro[3.4]octan-6-one], the EC50 in experiment [1] (setting [3]) was not below 5 µM. Besides, the “Enzymatic Emax” value in experiment [1] is recorded as “B (3≥B>2)”. Besides, in experiment [2] (setting [4]), the EC50 was in the range of 0.5 to 5 µM and the maximal fold induction is more than 1.5.
Regarding `CC1c2cc(CN3CC4(CNC4)C3)ccc2C(=O)N1Cc1ccc2[nH]c(=O)oc2c1` (centres unmarked) [Compound 115, 6-((5-((2,6-diazaspiro[3.3]heptan-2-yl)methyl)-3-methyl-1-oxoisoindolin-2-yl)methyl) benzo[d]oxazol-2(3H)-one], the EC50 in experiment [1] (setting [5]) was not below 5 µM. Further, the “Enzymatic Emax” value in experiment [1] is on record as “A (A>3)”. For the same compound, in experiment [2] (setting [6]), the EC50 was 5 to 50 µM and the maximal fold induction lay in the range of 1.2 to 1.5.
The matching figures for `N#Cc1nccc(Cl)c1CC1c2ccccc2C(=O)N1Cc1ccc2[nH]nnc2c1` (centres unmarked) [Compound 228, 3-((2-((1H-benzo[d][1,2,3]triazol-5-yl)methyl)-3-oxoisoindolin-1-yl)methyl)-4-chloropicolinonitrile]: less than 0.5 µM, “B (3≥B>2)”, less than 0.5 µM and more than 1.5.
`Cn1ncc(Cl)c1C[C@@H]1c2ccccc2C(=O)N1C[C@H]1C[C@]2(CNC(=O)O2)C1` [Compound 405, (2s,4S)-2-(((R)-1-((4-chloro-1-methyl-1H-pyrazol-5-yl)methyl)-3-oxoisoindolin-2-yl)methyl)-5-oxa-7-azaspiro[3.4]octan-6-one]: in experiment [1] (setting [3]), the EC50 fell in the range of 0.5 to 5 µM. The “Enzymatic Emax” value in experiment [1] is listed as “C (2≥C)”. Also, in experiment [2] (setting [4]), the EC50 lay in the range of 5 to 50 µM and the maximal fold induction was 1.2 to 1.5.
On to `N#Cc1cccnc1CC1c2ccccc2C(=O)N1Cc1ccc2[nH]c(=O)oc2c1` (centres unmarked) [Compound 257, 2-((3-oxo-2-((2-oxo-2,3-dihydrobenzo[d]oxazol-6-yl)methyl)isoindolin-1-yl)methyl) nicotinonitrile], for which, in experiment [1] (setting [5]), the EC50 lay in the range of 0.5 to 5 µM. Besides, the “Enzymatic Emax” value in experiment [1] is recorded as “A (A>3)”. In addition, in experiment [2] (setting [6]), the EC50 was less than 0.5 µM and the maximal fold induction was more than 1.5.
The matching figures for `CC1c2cc(CN3CCCC3)ccc2C(=O)N1Cc1ccc2[nH]c(=O)oc2c1` (centres unmarked) [Compound 96, 6-((3-methyl-1-oxo-5-(pyrrolidin-1-ylmethyl)isoindolin-2-yl)methyl)benzo[d]oxazol-2(3H)-one]: not below 5 µM, “A (A>3)”, 0.5 to 5 µM and more than 1.5.
For `O=C1c2ccc(C3CC3)cc2C(Cc2ccccc2)N1Cc1ccc2[nH]c(=O)oc2c1` (centres unmarked) [Compound 116, 6-((3-benzyl-5-cyclopropyl-1-oxoisoindolin-2-yl)methyl)benzo[d]oxazol-2(3H)-one], the values for the EC50 in experiment [1] (setting [5]) and in experiment [2] (setting [6]) were less than 0.5 µM and 0.5 to 5 µM, respectively. In experiment [1], the “Enzymatic Emax” value is reported as “B (3≥B>2)”. Also, in experiment [2] (setting [6]), the maximal fold induction was more than 1.5.

As usually defined, the EC50 is the concentration giving half of the maximal effect.

The record behind these values is patent US20260078130A1, “NAMPT MODULATORS, PREPARATIONS, AND USES THEREOF” (SIRONAX LTD., priority 2022, published 2026).
